{"source": "ChEMBL document CHEMBL4376804", "about": "“Review of Transient Receptor Potential Canonical (TRPC5) Channel Modulators and Diseases” (J Med Chem, 2019)", "key": {"[1]": {"molecular_target": "T1, Short transient receptor potential channel 6 (Homo sapiens, UniProt Q9Y210)", "T1 sequence (Q9Y210 whole entry)": "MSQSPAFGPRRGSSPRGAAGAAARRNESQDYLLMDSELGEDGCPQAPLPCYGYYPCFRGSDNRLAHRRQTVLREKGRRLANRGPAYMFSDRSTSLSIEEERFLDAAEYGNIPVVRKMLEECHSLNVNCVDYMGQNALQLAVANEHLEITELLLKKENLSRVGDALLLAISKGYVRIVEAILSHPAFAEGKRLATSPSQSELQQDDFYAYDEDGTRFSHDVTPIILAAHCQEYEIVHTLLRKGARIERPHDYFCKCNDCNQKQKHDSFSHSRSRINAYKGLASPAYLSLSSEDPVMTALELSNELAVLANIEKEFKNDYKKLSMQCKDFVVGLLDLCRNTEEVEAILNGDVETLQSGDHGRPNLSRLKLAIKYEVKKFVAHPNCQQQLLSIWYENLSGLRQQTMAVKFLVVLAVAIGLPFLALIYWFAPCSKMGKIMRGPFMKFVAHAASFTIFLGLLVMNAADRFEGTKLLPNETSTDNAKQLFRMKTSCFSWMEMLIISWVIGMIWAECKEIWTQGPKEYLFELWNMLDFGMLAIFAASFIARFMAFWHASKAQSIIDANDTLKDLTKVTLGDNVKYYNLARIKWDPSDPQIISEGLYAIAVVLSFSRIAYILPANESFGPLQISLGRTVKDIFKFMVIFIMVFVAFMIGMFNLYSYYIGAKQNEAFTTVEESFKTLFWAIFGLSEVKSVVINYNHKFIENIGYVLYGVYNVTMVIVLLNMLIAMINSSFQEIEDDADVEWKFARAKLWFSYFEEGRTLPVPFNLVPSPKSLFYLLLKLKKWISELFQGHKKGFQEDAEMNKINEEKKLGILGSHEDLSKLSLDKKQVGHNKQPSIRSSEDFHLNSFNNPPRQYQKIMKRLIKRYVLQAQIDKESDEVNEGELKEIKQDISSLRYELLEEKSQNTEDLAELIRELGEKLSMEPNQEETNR", "assay": "Inhibition of human TRPC6 expressed in HEK293 cells assessed as reduction in OAG-induced calcium influx preincubated for 2 mins followed by OAG stimulation by fluo-4/AM dye based FLIPR assay", "assay_type": "cell-based"}, "[2]": {"molecular_target": "TRPC4/TRPC1 (Homo sapiens, UniProt P48995+Q9UBN4)", "sequence (Q9UBN4 whole entry)": "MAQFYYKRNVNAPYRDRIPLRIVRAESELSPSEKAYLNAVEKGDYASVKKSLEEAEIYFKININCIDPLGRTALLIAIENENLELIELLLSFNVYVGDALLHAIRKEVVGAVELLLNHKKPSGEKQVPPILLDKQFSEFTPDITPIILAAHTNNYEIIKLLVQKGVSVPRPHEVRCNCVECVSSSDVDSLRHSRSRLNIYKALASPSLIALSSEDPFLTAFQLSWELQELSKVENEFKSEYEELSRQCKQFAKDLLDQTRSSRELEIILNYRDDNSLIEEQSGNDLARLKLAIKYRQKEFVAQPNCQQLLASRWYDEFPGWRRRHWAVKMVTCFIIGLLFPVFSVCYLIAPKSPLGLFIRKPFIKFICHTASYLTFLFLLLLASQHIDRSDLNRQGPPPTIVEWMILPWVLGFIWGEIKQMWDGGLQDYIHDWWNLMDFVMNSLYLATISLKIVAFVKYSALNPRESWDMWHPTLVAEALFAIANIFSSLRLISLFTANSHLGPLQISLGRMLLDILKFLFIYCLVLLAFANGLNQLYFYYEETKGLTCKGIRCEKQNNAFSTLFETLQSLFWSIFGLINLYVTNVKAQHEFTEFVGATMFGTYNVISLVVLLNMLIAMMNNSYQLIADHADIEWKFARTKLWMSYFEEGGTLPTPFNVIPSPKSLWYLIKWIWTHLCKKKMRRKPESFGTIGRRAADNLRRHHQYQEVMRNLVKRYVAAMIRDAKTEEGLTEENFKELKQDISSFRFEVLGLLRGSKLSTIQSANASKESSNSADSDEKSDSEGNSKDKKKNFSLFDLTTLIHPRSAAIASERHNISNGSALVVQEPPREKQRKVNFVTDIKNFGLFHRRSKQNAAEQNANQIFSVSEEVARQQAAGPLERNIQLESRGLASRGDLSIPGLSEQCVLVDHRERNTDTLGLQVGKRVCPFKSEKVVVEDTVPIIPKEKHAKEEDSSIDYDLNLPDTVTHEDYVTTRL", "sequence (P48995 whole entry)": "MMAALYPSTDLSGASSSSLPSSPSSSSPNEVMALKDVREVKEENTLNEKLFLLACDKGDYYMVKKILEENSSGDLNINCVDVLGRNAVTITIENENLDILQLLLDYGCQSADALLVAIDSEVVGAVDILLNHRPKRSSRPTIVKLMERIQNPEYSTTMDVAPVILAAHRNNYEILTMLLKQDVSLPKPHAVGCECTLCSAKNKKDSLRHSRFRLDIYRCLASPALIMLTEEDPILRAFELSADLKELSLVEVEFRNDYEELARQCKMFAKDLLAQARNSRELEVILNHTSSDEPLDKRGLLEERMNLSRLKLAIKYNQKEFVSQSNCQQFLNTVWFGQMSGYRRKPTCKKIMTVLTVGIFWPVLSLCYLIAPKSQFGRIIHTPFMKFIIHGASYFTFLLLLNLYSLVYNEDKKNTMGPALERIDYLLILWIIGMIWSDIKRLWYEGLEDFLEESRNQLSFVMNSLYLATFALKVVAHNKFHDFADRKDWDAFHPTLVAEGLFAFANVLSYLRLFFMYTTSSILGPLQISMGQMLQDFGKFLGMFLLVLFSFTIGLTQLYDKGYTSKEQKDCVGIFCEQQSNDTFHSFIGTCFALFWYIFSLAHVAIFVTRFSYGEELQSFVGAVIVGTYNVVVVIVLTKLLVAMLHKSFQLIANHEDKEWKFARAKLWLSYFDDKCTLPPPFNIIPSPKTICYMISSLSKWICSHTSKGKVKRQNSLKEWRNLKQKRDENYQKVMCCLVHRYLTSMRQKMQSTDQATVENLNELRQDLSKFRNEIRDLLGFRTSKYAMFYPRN", "assay": "Antagonist activity at TRPC4/TRPC1 in human A498 cells assessed as reduction in englerin A-induced calcium entry preincubated for 30 mins followed by englerin A addition by fluorescence method", "assay_type": "cell-based"}, "[3]": {"molecular_target": "T2, Short transient receptor potential channel 6 (Mus musculus, UniProt Q61143)", "T2 sequence (Q61143 whole entry)": "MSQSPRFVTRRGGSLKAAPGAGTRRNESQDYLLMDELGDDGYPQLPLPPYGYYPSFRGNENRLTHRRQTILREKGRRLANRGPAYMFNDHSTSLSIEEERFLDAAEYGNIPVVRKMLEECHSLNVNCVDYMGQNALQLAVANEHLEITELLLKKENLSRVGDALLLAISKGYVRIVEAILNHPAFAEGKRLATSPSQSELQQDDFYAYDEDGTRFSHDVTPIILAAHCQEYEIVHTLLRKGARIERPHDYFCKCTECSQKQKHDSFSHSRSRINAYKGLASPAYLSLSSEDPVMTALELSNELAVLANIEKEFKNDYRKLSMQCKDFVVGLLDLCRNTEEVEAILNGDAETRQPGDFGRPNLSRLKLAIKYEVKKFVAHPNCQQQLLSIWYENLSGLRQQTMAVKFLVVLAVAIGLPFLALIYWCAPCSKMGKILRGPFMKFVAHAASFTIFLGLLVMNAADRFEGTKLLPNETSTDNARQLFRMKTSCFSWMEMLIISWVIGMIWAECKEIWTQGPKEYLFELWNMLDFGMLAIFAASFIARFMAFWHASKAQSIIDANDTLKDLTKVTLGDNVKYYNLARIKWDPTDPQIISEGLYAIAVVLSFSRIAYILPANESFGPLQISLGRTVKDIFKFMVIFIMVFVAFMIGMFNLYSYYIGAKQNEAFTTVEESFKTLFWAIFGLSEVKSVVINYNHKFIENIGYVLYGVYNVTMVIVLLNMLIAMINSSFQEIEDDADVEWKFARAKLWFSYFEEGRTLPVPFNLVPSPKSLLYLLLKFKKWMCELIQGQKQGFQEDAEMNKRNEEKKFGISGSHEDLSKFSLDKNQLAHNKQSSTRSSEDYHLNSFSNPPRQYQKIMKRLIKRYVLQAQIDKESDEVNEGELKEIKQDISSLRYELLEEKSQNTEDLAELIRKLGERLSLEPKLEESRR", "assay": "Inhibition of HA-tagged mouse TRPC6 expressed in HEK293 cells assessed as reduction in acetylcholine-induced membrane potential by FLIPR membrane potential dye based assay", "assay_type": "cell-based"}, "[4]": {"species_on_record": "Mus musculus", "assay": "Selectivity ratio of mouse TRPC4 beta expressed in HEK293 cells co-expressing mu-opioid receptor to IC50 for mouse TRPC6 expressed in HEK293 cells", "assay_type": "cell-based"}, "[5]": {"molecular_target": "T3, Short transient receptor potential channel 4 (Mus musculus, UniProt Q9QUQ5)", "T3 sequence (Q9QUQ5 whole entry)": "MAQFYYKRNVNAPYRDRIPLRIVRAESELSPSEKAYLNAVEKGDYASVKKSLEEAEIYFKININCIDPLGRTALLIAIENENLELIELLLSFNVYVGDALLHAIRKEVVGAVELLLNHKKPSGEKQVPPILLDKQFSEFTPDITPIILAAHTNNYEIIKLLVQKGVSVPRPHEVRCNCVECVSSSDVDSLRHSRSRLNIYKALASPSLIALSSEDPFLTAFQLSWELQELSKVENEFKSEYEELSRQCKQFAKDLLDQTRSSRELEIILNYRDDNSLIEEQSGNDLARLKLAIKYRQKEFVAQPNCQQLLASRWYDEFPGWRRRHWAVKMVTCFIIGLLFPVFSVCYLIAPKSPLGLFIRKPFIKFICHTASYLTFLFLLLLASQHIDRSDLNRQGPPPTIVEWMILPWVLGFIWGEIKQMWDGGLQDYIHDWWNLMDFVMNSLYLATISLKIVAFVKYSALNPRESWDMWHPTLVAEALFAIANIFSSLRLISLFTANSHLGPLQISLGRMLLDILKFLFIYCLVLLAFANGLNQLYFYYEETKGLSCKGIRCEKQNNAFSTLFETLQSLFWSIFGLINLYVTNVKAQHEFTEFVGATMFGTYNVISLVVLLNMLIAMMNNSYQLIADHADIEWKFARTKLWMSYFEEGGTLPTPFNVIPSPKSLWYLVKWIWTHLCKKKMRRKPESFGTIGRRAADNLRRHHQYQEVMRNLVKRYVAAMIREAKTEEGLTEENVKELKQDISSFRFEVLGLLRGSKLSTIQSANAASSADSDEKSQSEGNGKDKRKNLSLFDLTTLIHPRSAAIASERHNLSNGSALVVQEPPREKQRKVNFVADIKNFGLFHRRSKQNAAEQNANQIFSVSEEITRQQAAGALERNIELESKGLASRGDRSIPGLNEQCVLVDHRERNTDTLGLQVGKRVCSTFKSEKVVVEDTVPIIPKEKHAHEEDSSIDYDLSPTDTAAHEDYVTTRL", "assay": "Inhibition of mouse TRPC4 beta expressed in HEK293 cells co-expressing mu-opioid receptor assessed as reduction in DAMGO-induced intracellular calcium level in presence of mu-opioid receptor agonist DAMGO by Fluo-4AM dye based fluorescence assay", "assay_type": "cell-based"}, "[6]": {"molecular_target": "Acetylcholinesterase (Homo sapiens, UniProt P22303)", "sequence (P22303 whole entry)": "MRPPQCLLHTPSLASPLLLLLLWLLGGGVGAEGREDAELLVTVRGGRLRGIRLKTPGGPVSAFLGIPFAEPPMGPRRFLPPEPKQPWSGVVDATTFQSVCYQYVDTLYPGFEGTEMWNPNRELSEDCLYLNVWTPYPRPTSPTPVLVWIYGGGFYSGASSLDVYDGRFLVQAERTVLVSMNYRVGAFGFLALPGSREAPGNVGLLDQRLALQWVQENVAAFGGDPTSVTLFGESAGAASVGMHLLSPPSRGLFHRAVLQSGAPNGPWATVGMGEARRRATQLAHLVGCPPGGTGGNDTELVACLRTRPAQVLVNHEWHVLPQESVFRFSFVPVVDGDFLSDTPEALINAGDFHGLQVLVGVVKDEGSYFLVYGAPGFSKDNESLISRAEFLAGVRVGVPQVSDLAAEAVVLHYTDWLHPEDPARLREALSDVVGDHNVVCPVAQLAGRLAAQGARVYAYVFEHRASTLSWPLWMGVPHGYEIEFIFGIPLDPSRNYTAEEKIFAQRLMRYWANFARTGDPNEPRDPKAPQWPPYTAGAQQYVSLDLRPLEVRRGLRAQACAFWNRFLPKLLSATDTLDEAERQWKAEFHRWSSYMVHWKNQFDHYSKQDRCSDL", "assay": "Inhibition of human recombinant acetylcholinesterase expressed in HEK-293 cells using AMTch as substrate after 30 mins by spectrophotometric method"}, "[7]": {"molecular_target": "TRPC6", "assay": "Inhibition of TRPC6 expressed in HEK293 cells coexpressing M5 receptor assessed as reduction in TRPC6-mediated calcium influx by fluorescence method"}, "[8]": {"molecular_target": "T4, Short transient receptor potential channel 3 (Homo sapiens, UniProt Q13507)", "T4 sequence (Q13507 whole entry)": "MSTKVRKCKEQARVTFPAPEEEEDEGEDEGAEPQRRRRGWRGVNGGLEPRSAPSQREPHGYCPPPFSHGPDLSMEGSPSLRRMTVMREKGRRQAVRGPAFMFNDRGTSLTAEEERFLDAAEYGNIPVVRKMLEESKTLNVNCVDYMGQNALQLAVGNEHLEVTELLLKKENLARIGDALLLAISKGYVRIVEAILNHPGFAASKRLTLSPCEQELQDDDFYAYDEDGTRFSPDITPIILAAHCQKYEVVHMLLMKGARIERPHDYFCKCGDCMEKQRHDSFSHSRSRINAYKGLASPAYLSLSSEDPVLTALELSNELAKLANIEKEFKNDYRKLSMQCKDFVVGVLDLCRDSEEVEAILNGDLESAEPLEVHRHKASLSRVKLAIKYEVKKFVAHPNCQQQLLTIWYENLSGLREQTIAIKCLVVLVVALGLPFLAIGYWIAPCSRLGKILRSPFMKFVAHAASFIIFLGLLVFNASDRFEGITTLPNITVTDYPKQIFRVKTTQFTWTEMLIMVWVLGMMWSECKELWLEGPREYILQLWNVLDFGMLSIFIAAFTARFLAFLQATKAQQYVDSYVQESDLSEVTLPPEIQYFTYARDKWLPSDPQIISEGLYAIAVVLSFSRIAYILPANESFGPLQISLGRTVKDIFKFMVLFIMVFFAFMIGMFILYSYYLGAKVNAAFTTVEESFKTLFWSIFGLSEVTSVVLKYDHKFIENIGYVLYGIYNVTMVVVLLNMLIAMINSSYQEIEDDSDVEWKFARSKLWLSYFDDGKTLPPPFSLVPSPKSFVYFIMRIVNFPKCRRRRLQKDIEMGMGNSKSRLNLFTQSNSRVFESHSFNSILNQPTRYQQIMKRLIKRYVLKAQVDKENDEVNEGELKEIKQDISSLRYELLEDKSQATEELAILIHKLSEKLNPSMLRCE", "assay": "Inhibition of human TRPC3 expressed in HEK293 cells assessed as reduction in carbachol-induced membrane potential by FMP-2 dye based assay", "assay_type": "cell-based"}, "[9]": {"assay": "Inhibition of human TRPC1/mouse TRPC4 beta expressed in HEK293 cells co-expressing M2 receptor assessed as reduction in […] membrane potential by FMP-2 dye based assay", "assay_type": "cell-based"}, "[10]": {"assay": "Drug concentration in C57BL/6 mouse serum at 10 mg/kg, ip after 2 hrs by UPLC method", "assay_type": "ADME, organism-based", "conditions": "read-out: Drug uptake"}, "[11]": {"assay": "Drug concentration in C57BL/6 mouse brain at 10 mg/kg, ip after 2 hrs by UPLC method", "assay_type": "ADME, organism-based", "conditions": "read-out: Drug uptake"}, "[12]": {"molecular_target": "T2, Short transient receptor potential channel 6", "assay": "Inhibition of mouse TRPC6 expressed in HEK293 cells co-expressing M5 receptor assessed as reduction in carbachol-induced membrane potential by FMP-2 dye based assay", "assay_type": "cell-based"}, "[13]": {"assay": "Drug concentration in C57BL/6 mouse cerebrospinal fluid at 10 mg/kg, ip after 2 hrs by UPLC method", "assay_type": "ADME, organism-based", "conditions": "read-out: Drug uptake"}, "[14]": {"molecular_target": "ORAI1/STIM1 (Rattus norvegicus, UniProt P84903+Q5M848)", "sequence (P84903 whole entry)": "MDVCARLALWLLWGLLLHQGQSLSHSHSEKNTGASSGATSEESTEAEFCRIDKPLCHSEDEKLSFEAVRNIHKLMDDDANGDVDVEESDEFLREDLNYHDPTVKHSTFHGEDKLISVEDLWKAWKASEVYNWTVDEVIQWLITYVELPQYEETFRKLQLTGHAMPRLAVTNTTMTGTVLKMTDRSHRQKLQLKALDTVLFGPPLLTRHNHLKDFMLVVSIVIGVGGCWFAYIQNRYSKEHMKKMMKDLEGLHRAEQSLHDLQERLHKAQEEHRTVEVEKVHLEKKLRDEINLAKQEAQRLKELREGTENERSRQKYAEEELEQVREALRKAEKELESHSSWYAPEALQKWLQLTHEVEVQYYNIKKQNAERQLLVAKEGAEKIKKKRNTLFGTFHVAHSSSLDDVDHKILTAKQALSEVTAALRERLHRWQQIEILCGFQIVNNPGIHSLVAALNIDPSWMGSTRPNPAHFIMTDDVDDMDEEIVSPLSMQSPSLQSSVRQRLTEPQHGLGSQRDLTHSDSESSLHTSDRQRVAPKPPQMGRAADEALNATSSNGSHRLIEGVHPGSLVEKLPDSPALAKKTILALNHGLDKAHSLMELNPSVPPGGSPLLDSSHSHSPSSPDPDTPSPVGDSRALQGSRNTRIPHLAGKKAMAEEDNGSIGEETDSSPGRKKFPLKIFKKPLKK", "sequence (Q5M848 whole entry)": "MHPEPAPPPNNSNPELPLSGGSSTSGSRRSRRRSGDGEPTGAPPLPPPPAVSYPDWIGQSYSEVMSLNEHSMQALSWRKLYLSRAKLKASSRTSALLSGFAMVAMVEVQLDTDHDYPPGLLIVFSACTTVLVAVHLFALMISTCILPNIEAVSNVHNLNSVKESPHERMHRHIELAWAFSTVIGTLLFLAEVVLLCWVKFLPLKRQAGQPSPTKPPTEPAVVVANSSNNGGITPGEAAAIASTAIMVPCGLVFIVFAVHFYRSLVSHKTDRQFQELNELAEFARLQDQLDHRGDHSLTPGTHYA", "assay": "Inhibition of ORAI/STIM1 in thapsigargin treated rat RBL2H3 cells assessed as reduction in store-operated calcium entry after 5 mins by fura-2-AM dye based assay", "assay_type": "cell-based"}, "[15]": {"assay": "Selectivity ratio of ORAI/STIM1 in thapsigargin treated rat RBL2H3 cells to YFP-tagged TRPC3 (unknown origin) expressed in HEK293 cells", "assay_type": "cell-based"}, "[16]": {"molecular_target": "T4, Short transient receptor potential channel 3", "assay": "Inhibition of YFP-tagged TRPC3 (unknown origin) expressed in HEK293 cells assessed as reduction carbhocol-induced receptor operated Calcium influx after 5 mins by fura-2-AM dye based assay", "assay_type": "cell-based"}}}
{"smiles": "C=C[C@](C)(O)CC[C@H]1C(=C)C[C@H](OC(N)=O)[C@H]2C(C)(C)CCC[C@]12C", "values": [{"measurement": "IC50", "setting": "[1]", "result": 0.17, "unit": "µM"}]}
{"smiles": "C=C[C@@](C)(CC[C@H]1C(=C)C[C@H](OC(N)=O)[C@H]2C(C)(C)CCC[C@]12C)OC(C)=O", "values": [{"measurement": "IC50", "setting": "[1]", "result": 0.25, "unit": "µM"}]}
{"smiles": "CC(C)[C@]12C[C@@H](OCCO)[C@](C)(O1)[C@@H]1CC[C@@H](C)[C@H]1[C@@H]2OC(=O)/C=C/c1ccccc1", "values": [{"measurement": "IC50", "setting": "[2]", "result": 0.062, "unit": "µM"}]}
{"smiles": "Cc1cc(N2CCCCC2)nc2ccccc12", "values": [{"measurement": "IC50", "setting": "[3]", "result": 17.9, "unit": "µM"}, {"measurement": "Ratio IC50", "setting": "[4]", "result": 19}, {"measurement": "IC50", "setting": "[5]", "result": 0.96, "unit": "µM"}, {"measurement": "IC50", "setting": "[6]", "result": 0.84, "unit": "µM"}]}
{"smiles": "Cc1nn2c(O)cc(C3CCN(C(=O)OC(C)(C)C)CC3)nc2c1-c1ccc(F)cc1", "values": [{"measurement": "IC50", "setting": "[7]", "result": 8.4, "unit": "µM"}]}
{"smiles": "CCCCNc1nc2ccccc2[nH]1", "values": [{"measurement": "IC50", "setting": "[8]", "result": 48.6, "unit": "µM"}, {"measurement": "IC50", "setting": "[9]", "result": 8.3, "unit": "µM"}, {"measurement": "concentration at 2 h", "setting": "[10]", "result": 2260, "unit": "ng/mL"}, {"measurement": "concentration at 2 h", "setting": "[11]", "result": 1100, "unit": "ng/g"}, {"measurement": "IC50", "setting": "[12]", "result": 59.6, "unit": "µM"}, {"measurement": "concentration at 2 h", "setting": "[13]", "result": 335, "unit": "ng/mL"}]}
{"smiles": "O=C(Nc1ccc(-n2nc(C(F)(F)F)cc2C(F)(F)F)cc1)c1ccncc1F", "values": [{"measurement": "IC50", "setting": "[14]", "result": 0.49, "unit": "µM"}, {"measurement": "Ratio IC50", "setting": "[15]", "result": 37}, {"measurement": "IC50", "setting": "[16]", "result": 18.5, "unit": "µM"}]}
